We go through 2 compounds from patent US12433876B2, “Septin inhibitors for treatment of cancers” (UNIVERSITY OF ROCHESTER, priority 2019, dated 2025).

“And” between values parts separate entries of the source, which are not always exact repeats. Identical values can stand only once.

Common to all, as to assay type: cell-based
The test system of experiment [1] is ECC-1 cells. Kind of experiment: BrdU cell proliferation assay. As to conditions: ECC-1, 48 hours. The protocol: (§1) Cell lines, Culture, and Reagents. Cells were maintained in either DMEM (SKOV-3, KLE, OVCAR-3, OVCAR8-C5 and IGROV-1) or RPMI-1640 (ECC-1 and HCH-1), supplemented with 10% fetal calf serum (or 20% for OVCAR-3), penicillin (100 units/mL), and streptomycin (100 μg/mL) at 37° C. with 5% CO2 in a humidified incubator. Antibodies were purchased from Abcam (septin-2; ab179436) and Cell Signaling Technology; ERK (9102), p-ERK (4370), -actin (3700), u-Tubulin (2144), EGFR (4267) and HER2 (4290). FCF was purchased from Abcam. All other chemicals were from Sigma Aldrich. Synthesis of Derivaties. […] The reaction was monitored using thin-layer chromatography plates with DCM-MeOH or pure ethyl acetate as eluent. Spots were monitored in a UV chamber. The reaction mixture, upon completion of the reaction, was poured into wet ice mixture and triturated, then the separated solid was filtered by vacuum. The product was washed with hexane, followed by diethyl ether, and was dried under vacuum. The compounds were characterized by spectrophotometric techniques. Quantitative Real-Time PCR. The indicated cell lines were transfected with siRNA targeting septin-2 or non-targeting control siRNA (Santa Cruz Biotechnology: sc-37007 or sc-40936) using Lipofectamine 3000 (Invitrogen). […] Quantitative real-time PCR was conducted using QuantStudio 12 K Flex Real-Time PCR System (ABI) and the Taqman Gene Expression Assay (ABI) consisting of the FAM-labeled probes as follows: SEPT2 (Hs01565417_ml); WFDC2 (Hs00899484_ml); TBP (Hs00427620_ml) or B2M (Hs00187842_ml), which was used as reference for normalization. […] Cell viability, proliferation, and cellular apoptosis were measured using the MTS (Promega), BrdU cell proliferation (Cell Signaling Technology), and Caspase-Glo 3/7 apoptosis detection (Promega) assays, following the respective manufacturer's recommendations with suitable modification. […] Survival curves between septin high and low population and their statistical significance were analyzed using GraphPad Prism software (Mantel-Cox test). […]

Experiment [2] relates to endometrial (ECC-1 and KLE) and ovarian (HCH-1, OVCAR-3, and SKOV-3) cancer cell lines. Kind of experiment: MTS cell viability, gynecologic cancer cell line panel. The protocol:
Cell lines, Culture, and Reagents. Cells were maintained in either DMEM (SKOV-3, KLE, OVCAR-3, OVCAR8-C5 and IGROV-1) or RPMI-1640 (ECC-1 and HCH-1), supplemented with 10% fetal calf serum (or 20% for OVCAR-3), penicillin (100 units/mL), and streptomycin (100 μg/mL) at 37° C. with 5% CO2 in a humidified incubator. Antibodies were purchased from Abcam (septin-2; ab179436) and Cell Signaling Technology; ERK (9102), p-ERK (4370), -actin (3700), u-Tubulin (2144), EGFR (4267) and HER2 (4290). FCF was purchased from Abcam. All other chemicals were from Sigma Aldrich. Synthesis of Derivaties. […] The reaction was monitored using thin-layer chromatography plates with DCM-MeOH or pure ethyl acetate as eluent. Spots were monitored in a UV chamber. The reaction mixture, upon completion of the reaction, was poured into wet ice mixture and triturated, then the separated solid was filtered by vacuum. The product was washed with hexane, followed by diethyl ether, and was dried under vacuum. The compounds were characterized by spectrophotometric techniques. Quantitative Real-Time PCR. The indicated cell lines were transfected with siRNA targeting septin-2 or non-targeting control siRNA (Santa Cruz Biotechnology: sc-37007 or sc-40936) using Lipofectamine 3000 (Invitrogen). Tri reagent and Direct-zol kit (Zymo Research) were used to lyse and isolate total RNA. Reverse transcription was performed using iScript cDNA synthesis kit (BioRad), both following the manufacturer's recommendations. Quantitative real-time PCR was conducted using QuantStudio 12 K Flex Real-Time PCR System (ABI) and the Taqman Gene Expression Assay (ABI) consisting of the FAM-labeled probes as follows: SEPT2 (Hs01565417_ml); WFDC2 (Hs00899484_ml); TBP (Hs00427620_ml) or B2M (Hs00187842_ml), which was used as reference for normalization. Cell Viability, Proliferation and Apoptosis Assay. Cell viability, proliferation, and cellular apoptosis were measured using the MTS (Promega), BrdU cell proliferation (Cell Signaling Technology), and Caspase-Glo 3/7 apoptosis detection (Promega) assays, following the respective manufacturer's recommendations with suitable modification. Enzyme-Linked Immunosorbent Assay (ELISA) and Immunoblotting. Cells were maintained overnight in the culture media described above. […] Following the treatment, cell lysates and supernatants were collected and subjected to HE4 assay (Human HE4 Quantikine ELISA Kit, R&D Systems). The amount of HE4 in supernatant was normalized to the protein concentration of matching cell lysate. The levels of HER2 were determined by Human Total ErbB2/Her2 DuoSet IC ELISA (R&D systems. Wester blot analysis was conducted using the protocol previously published (see Kim, K. K. et al. Tetrathiomolybdate inhibits mitochondrial complex IV and mediates degradation of hypoxia-inducible factor-1alpha in cancer cells. Sci. Rep. 5, 14296, 2015). Data Acquisition and Statistical Analysis. Gene expression profiling of septins, comparing microdissected normal ovarian stroma (N=8) against that of tumor stroma samples (N=31) from high grade serous ovarian cancer patients, was obtained from Mixed Ovarian Cancer (CAFs)-Wong-77-u133p2 data-set through ‘R2: Genomics Analysis and Visualization Platform (http://r2/am/n1). Mean values with SD were plotted and compared using Student t-test (two tail, unpaired heteroscedastic t-test, significant difference when p<0.01). The prognostic assessment of septin-2 amongst different cancers or septins in endometrial cancer was conducted using TCGA data acquired through Human Protein Atlas (http://www.proteinatlas.org) (see Uhlen, M. et al. Towards a knowledge-based Human Protein Atlas. Nat. Biotechnol. 28, 1248-1250, 2010). Survival curves between septin high and low population and their statistical significance were analyzed using GraphPad Prism software (Mantel-Cox test). […] Structural Modification of FCF. […]

For experiment [3], the system named is HER2. Kind of experiment: Western blot of HER2 expression in ECC-1 and HCH-1 cells. The settings on record: UR214-7 33 μM, UR214-9 33 μM, FCF 300 μM, 24 hours. The procedure: as §1
Background: Immunoblotting shows a protein as a band on a membrane.

Regarding `O=C(Nc1cc(Cl)nc(Cl)c1)Nc1cccc(SC(F)(F)F)c1F` [UR214-9], the concentration inhibiting proliferation in experiment [1] (BrdU (FIG. 2B)) was ~4 µM and 4 to 5 µM. For the same compound, the “viability of tumor cells, dose-dependent (FIG. 2E)” value in experiment [2] (72 hours, MTS) is reported as “potent activity across most cell lines”. The “proliferation in multiple endometrial and ovarian cancer cells” value in experiment [2] (at considerably lower doses than FCF) is reported as “blocked proliferation”. In addition, in experiment [3], the HER2 expression result was “inhibition of HER2 expression”.
On to `O=C(Nc1ccccc1)Nc1ccnc(Cl)c1` [FCF, N-(2-chloro-4-pyridyl)-N′-phenylurea, reference compound], for which the proliferation result in experiment [1] (BrdU, lower dose ranges) was “lacked activity”. Besides, the cell viability entry in experiment [2] (FCF 0, 100, 300 μM, 24 or 72 hours, time- and dose-dependent (FIG. 1)) is “reduced the viability”. In addition, in experiment [3], the HER2 expression result is “inhibition of HER2 expression”.
